Measured values as given in a compilation of properties of binary mixtures (doi:10.1021/je300542s).

Assay: xn = mol fraction of the nth substance listed
Settings: 101 kPa

O=C1CCCN1 + CC[n+]1ccn(C)c1.F[B-](F)(F)F
speed of sound [m/s]
Settings	293.15 K	298.15 K	303.15 K	308.15 K
x1 = 0.0786	1634.5	1622.4	1612.6	1602.5
x1 = 0.0912	1635	–	1613.4	1603.4
x1 = 0.1278	1636.6	1624.6	1615.4	1605.6
x1 = 0.1711	–	1626.5	–	–
x1 = 0.2294	–	–	1620.5	–
x1 = 0.2686	1642.3	1630.8	1622.3	–
x1 = 0.3292	1644.6	1633.3	1624.5	1613.2
x1 = 0.3684	1646.2	1634.8	1626	1614
x1 = 0.4283	1648.7	1637.1	1627.7	1615
x1 = 0.4695	1650.2	1638.6	1628.3	1615.7
x1 = 0.5281	–	1640	1629.2	1615.9
x1 = 0.5711	1653.7	1641.1	–	1616.2
x1 = 0.6283	1655.2	1641.9	1629.5	1615.9
x1 = 0.6603	1656	1642.1	1629.2	1615.3
x1 = 0.7302	1656.7	–	1628	–
x1 = 0.7598	–	1641.5	1627.1	–
x1 = 0.8296	1656.4	1640.1	1624.9	1611
x1 = 0.8901	–	1638.4	–	1608.3

CC[n+]1ccn(C)c1.F[B-](F)(F)F + CN1CCCC1=O
speed of sound [m/s]
Settings	293.15 K	298.15 K	303.15 K	308.15 K
x2 = 0.0696	–	–	1598	1586.4
x2 = 0.0871	–	1607.6	1595.9	1584.2
x2 = 0.1273	1615.1	1603.2	–	1579.3
x2 = 0.1676	1611.5	1599.5	1587.2	–
x2 = 0.2658	1605.6	1592	1579	1565.5
x2 = 0.2689	1605.3	1592	–	1565.2
x2 = 0.3228	1603.2	1589	1575.2	1560.7
x2 = 0.3683	1601.7	1586.9	–	1557.7
x2 = 0.4291	1600	1584.2	–	–
x2 = 0.4744	1599.2	1582.6	1566.9	1551
x2 = 0.5227	1597.8	1581	–	1547.9
x2 = 0.5685	1596.9	1579	1562.4	1545.4
x2 = 0.6286	1595	1576.7	1559.3	1541.5
x2 = 0.6703	1593	1574.5	–	1539
x2 = 0.7291	1590.1	1571.2	1553.4	1534.5
x2 = 0.7711	1587.7	–	1550.1	1531.2
x2 = 0.8188	1584	1564.7	–	–
x2 = 0.8887	1577.9	1558.4	1539.7	1520.3
